From paper PMC8279415, “Targeting Acute Myelogenous Leukemia Using Potent Human Dihydroorotate Dehydrogenase Inhibitors Based on the 2-Hydroxypyrazolo[1,5-a]pyridine Scaffold: SAR of the Biphenyl Moiety” (Journal of Medicinal Chemistry, 2021)
Values after ≈ are worked out from the molar mass of the structure shown. “Also recorded” adds a separate entry of the source. Like-named read-outs stand apart in the source and are kept apart here.

Legend:
[1] = Protein binding in vitro (ultrafiltration); assay type: in vitro ADME; conditions: male, human serum, 37 °C, read-out: protein binding (% bond) (converted)
Method: This was achieved via ultrafiltration using commercially available membrane systems (Centrifree ultrafiltration devices with ultracel YM-T membrane, Merck). […] 1 mL of the solution obtained in the sample reservoir of the ultrafiltration device was gently shaken in an orbital shaker at 37 °C for 1 h. […] The concentrations of the compounds in the ultrafiltrate and filtrate were determined using reverse-phase UHPLC, and the chromatographic conditions were those described above with different injection volumes: 20 μL for ultrafiltrate samples and 2 μL for filtrate samples.

[2] = target: T1, recombinant hDHODH (Homo sapiens, UniProt Q02127); assay: hDHODH inhibition assay (DCIP reduction); assay type: biochemical
T1 construct: made in house; host or cells: E. coli BL21DE3 PyrD
T1 sequence (Q02127 whole entry): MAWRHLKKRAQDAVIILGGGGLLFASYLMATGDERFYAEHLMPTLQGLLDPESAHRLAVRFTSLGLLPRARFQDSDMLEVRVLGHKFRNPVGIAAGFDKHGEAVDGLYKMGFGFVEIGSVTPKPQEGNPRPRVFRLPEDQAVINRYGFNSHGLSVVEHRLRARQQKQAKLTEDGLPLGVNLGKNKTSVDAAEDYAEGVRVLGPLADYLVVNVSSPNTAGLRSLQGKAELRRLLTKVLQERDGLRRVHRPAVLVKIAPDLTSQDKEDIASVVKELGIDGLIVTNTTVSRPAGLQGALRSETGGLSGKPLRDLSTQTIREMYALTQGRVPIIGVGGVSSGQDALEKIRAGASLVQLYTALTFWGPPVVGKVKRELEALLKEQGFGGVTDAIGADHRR
Method: BL21DE3 PyrD E. coli cells were transformed using the plasmid construct pFN2A–hDHODH (kindly given by Department of Drug Science and Technology, University of Turin, Turin, Italy). The vector produces hDHODH as an N-terminal GST-fusion protein. Cells were grown at 37 °C in LB medium supplemented with 0.1 mM flavin mononucleotide (Cayman Chemical). […] Triton X-100 was added to the lysate, to a final concentration of 1%, before centrifugation at 14 000g for 40 min at 4 °C. The clarified supernatant was incubated with DNase I for 30 min at room temperature, supplemented with 2 mM dithiothreitol (DTT), and filtered through a 0.45 μm syringe filter as previously described by Sainas et al.[18] The GST-fused enzyme was purified from the bacterial lysate using affinity chromatography on immobilized glutathione-Sepharose columns (GE- […]). The GST tag was not cleaved for further analysis. All the reagents used in the protein expression and purification were supplied by Merck/Sigma-Aldrich if not otherwise specified.
The enzymatic inhibition assay was optimized for being performed on a 96-well plate and to achieve higher throughput. For each well of the plate a total volume of 200 μL was used: 5 μL of purified GST-hDHODH; 60 μL of 2,6-dichloroindophenol (DCIP) 50 μM; 20 μL of coenzyme Q10 enzyme 100 μM; 20 μL of dihydroorotate (DHO) 500 μM; Tris-HCl, pH 8, up to a final volume of 200 μL. Inhibitory activity was assessed by monitoring the reduction of DCIP, which is associated with the oxidation of dihydroorotate as catalyzed by the DHODH enzyme. The enzyme was preincubated for 5 min at 37 °C in Tris-HCl, pH 8, with coenzyme Q10, with DCIP (50 μM), and with the compounds to be tested used at different concentrations (final DMSO concentration 0.1% v/v). The reaction was initiated by the addition of DHO (500 μM), and the absorbance kinetic reduction was monitored at λ = 650 nm using a multiplate reader (Tecan, M1000Pro). In order to assess the minimum and maximum absorbance values of the enzymatic reaction, a Min control value was obtained by measuring the absorbance without DHO. Similarly, a Max value was obtained by measuring the absorbance with DHO but no inhibitor. A blank reduction calculation was also performed by measuring the absorbance values using 180 μL of Tris-HCl and 20 μL of coenzyme Q10. The instrument was set to read the absorbance values every 10 s for a total read time of 10 min at 37 °C. […] Values are the mean ± SE of three independent experiments.

[3] = Solubility assay at pH 7.4 in PBS; assay type: physicochemical; conditions: pH 7.4, 25 °C, 24 h, LOD 6 μM; for solubility at 24 h: phosphate buffered saline
Method: These suspensions were filtered through a PTFE 0.45 μm filter (VWR), and the solutions were chromatographically analyzed using a PerkinElmer ultrahigh performance liquid chromatography (UHPLC) instrument, equipped with a reverse-phase (RP) C18 Phenomenex column (2.1 mm × 100 mm, 1.7 μm particle size). […] The flow rate was 0.5 mL/min. Standard injection volumes were either 2 or 4 μL for poorly soluble compounds. The detection system was a PerkinElmer diode array detector. The wavelengths that were monitored for each compound were defined according to the compound’s own absorption spectrum. Solubility, expressed as μM concentration of the saturated solution, was calculated via interpolation with external calibration curves that were obtained with solutions of each compound in acetonitrile.

[4] = tested on: THP1 cells; assay: Fixed-concentration screening of differentiation (CD14) and apoptosis (annexin V) in THP1, with or without uridine; assay type: cell-based, human
Method: DMSO (dimethyl sulfoxide) acts as the negative control group as it was used to solubilize hDHODH inhibitors. ∗, ∗∗, ∗∗∗ represent the statistical significance for apoptosis (respectively p < 0.05, < 0.01, and <0.001). #, ##, and ### represent the statistical significance for differentiation (respectively p < 0.05, <0.01, and <0.001). The statistical significance is calculated by comparing the compounds to DMSO.
The statistical significance is calculated by comparing the compounds to DMSO.

[5] = tested on: THP1 cells; assay: Annexin V apoptosis assay in THP1; conditions: for EC50: Homo sapiens
[6] = tested on: U937 cells; assay: Annexin V apoptosis assay in U937; conditions: for EC50: Homo sapiens, U-937, 72 h, read-out: apoptosis EC50 U937 (CL 95%)
[7] = LogD7.4, shake-flask n-octanol/PBS; conditions: n-octanol/PBS, pH 7.4
Method: The partition coefficients between n-octanol and PBS at pH 7.4 (LogD^7.4) were obtained using the shake-flask technique at room temperature. In the shake-flask experiments, 50 mM phosphate buffered saline, pH 7.4, was used as the aqueous phase. The organic (n-octanol) and aqueous phases were mutually saturated by shaking for 4 h. The compounds were solubilized in the buffered aqueous phase at the highest concentration compatible with solubility, and appropriate amounts of n-octanol were added. The two phases were shaken for about 20 min, by which time the partitioning equilibrium of solutes had been reached, and then centrifuged (10 000 rpm, 10 min). The concentration of the solutes was measured in the aqueous phase using a UV spectrophotometer (Varian Cary 50BIO); absorbance values (recorded for each compound at the wavelength of maximum absorption) were interpolated in calibration curves obtained using standard solutions of the compounds (r^2 > 0.99). Each log D value is an average of at least six measurements.

[8] = tested on: Jurkat cells; assay: CFSE-based cytotoxic activity assay; conditions: concentration inducing cytotoxicity ≥30%, 3 days
[9] = tested on: THP1 cells; assay: Differentiation assay (CD14 expression) in THP1; conditions: Homo sapiens
[10] = tested on: U937 cells; assay: Differentiation assay (CD11b expression) in U937; conditions: for EC50: Homo sapiens, U-937, 72 h, read-out: differentiation EC50 U937 (CL 95%)
[11] = In vitro metabolic profile in rat-liver microsomes; assay type: in vitro ADME; conditions: for metabolites identified in sample C: active rat-liver microsomes and regenerating system, HPLC-HRMS; for metabolic stability: rat-liver microsomes, 2 h
Method: SyGMa (systematic generation of potential metabolites) software, a tool that lists predicted metabolites with associated empirical probability scores, was used to identify putative metabolites, which were then investigated by analyzing samples with liquid chromatography coupled to high-resolution mass spectrometry (HPLC–HRMS). […] The full-scan MS data acquired for all of the samples were analyzed to find the m/z values of the predicted molecular structures. In order to exclude interfering signals, the results obtained were compared to blank samples and common background peaks were not considered.
Rat-liver microsomes (Sprague-Dawley, male, Sigma-Aldrich; 20 mg/mL protein concentration) were incubated with the candidate compound solution (5 μM final concentration, with 1% DMSO) and Tris buffer (0.1 M, pH = 7.4). The regenerating system, which slowly generated coenzyme units over the incubation time, leading to a better reproduction of in vivo behavior, was composed of MgCl2 (3.3 mM), NADP^+ (1.3 mM), Glu6P (3.5 mM), and Glu6P dehydrogenase (0.5 U/mL).
The incubation time started with the addition of the microsomes suspension (0.5 mg/mL).
Metabolic reactions were stopped by adding 100 μL of cooled acetonitrile to the 100 μL sample of the incubation mixture. Samples were centrifuged to provoke protein precipitation, and the supernatants were immediately stocked at −80 °C, until analysis, to prevent the potential degradation of unstable products.
The products of in vitro metabolism were identified using a high-resolution mass spectrometer (Q-Exactive Orbitrap, Thermo Scientific) coupled to an HPLC instrument (1200 system Agilent). All analytes were separated on an Ascentis C18 column (150 mm × 2.1 mm, 5 μm particle size) maintained at 35 °C. The elution mixture was composed of solvent A (0.1% formic acid in water for positive ionization mode and 0.05% acetic acid for negative ionization mode) and solvent B (acetonitrile). […] MS2-DIA scans were acquired at R = 17 500 and with variable collision energies ranging from 30 to 45, depending on the m/z of the parent ion.

[12] = mean ± SE of three independent experiments, read-out: hDHODH, IC50 ± SE
[13] = supplementary CSV, values differ from Table 2, read-out: hDHODH IC50 ± SE (supplement CSV)
[14] = THP-1, 72 h, read-out: apoptosis EC50 THP1 (CL 95%)
[15] = THP-1, read-out: Apoptosis EC50 (C.L.95%) (supplement CSV)
[16] = THP-1, 72 h, read-out: differentiation EC50 THP1 (CL 95%)
[17] = THP-1, read-out: Differentiation EC50 (C.L.95%) (supplement CSV)

Structure (SMILES) | fraction unbound at 1 h, 50 µM [1] | IC50 [2, 13] [nM] | solubility at 24 h [3] [µM] | activity in cells (differentiation and apoptosis) ([4]; THP1, 0.1 μM) | EC50 [5, 14] [nM] | EC50 [5, 15] [nM] | EC50 [6] [nM] | logD [7] | cytoxicity Jurkat (effect ≥30% ± SD) [8] [µM] | EC50 [9, 16] [nM] | EC50 [9, 17] [nM] | EC50 [10] [nM] | metabolites identified in sample C [11] | other results
Cc1c(-c2ccc(-c3ccccc3F)cc2)nc2ccc(F)cc2c1C(=O)O [Brequinar, reference compound] | 0.0117 |  |  |  |  |  |  |  |  |  |  |  |  | 
O=C(Nc1c(F)c(F)c(-c2cccc(C(F)(F)F)c2)c(F)c1F)c1c(O)nn2ccccc12 [Compound 13, 2-Hydroxy-N-(2,3,5,6-tetrafluoro-3′-(trifluoromethyl)-[1,1′-biphenyl]-4-yl)pyrazolo[1,5-a]pyridine-3-carboxamide] | 0.0006 | 3.01 ± 0.37 | < 6 | highly active | 51.1 | 42.9 | 60 | 2.69 ± 0.03 | >100 | 38.3 | 32 | 34.2 |  | IC50 [2, 12]: 6.34 ± 0.63 nM; solubility in PBS [3]: <LOD
COc1cccc(-c2c(F)c(F)c(NC(=O)c3c(O)nn4ccccc34)c(F)c2F)c1 [Compound 16, 2-Hydroxy-N-(2,3,5,6-tetrafluoro-3′-methoxy-[1,1′-biphenyl]-4-yl)pyrazolo[1,5-a]pyridine-3-carboxamide] | 0.0005 | 1.47 ± 0.33 | 74.3 (≈ 32 µg/mL) | highly active | 37.9 | 29.6 | 42.8 |  | 68 ± 7 | 31.2 | 26.9 | 31.1 |  | 
O=C(Nc1c(F)c(F)c(-c2cccnc2)c(F)c1F)c1c(O)nn2ccccc12 [Compound 8, 2-Hydroxy-N-(2,3,5,6-tetrafluoro-4-(pyridin-3-yl)phenyl)pyrazolo[1,5-a]pyridine-3-carboxamide] | 0.0042 | 7.19 ± 0.19 |  |  |  |  |  | 0.98 ± 0.03 |  |  |  |  |  | IC50 [2, 12]: 6.23 ± 0.63 nM; activity in cells (differentiation and apoptosis) ([4]; THP1, 1 μM): basically inactive
O=C(Nc1c(F)c(F)c(-c2cccc(OC(F)(F)F)c2)c(F)c1F)c1c(O)nn2ccccc12 [Compound 15, 2-Hydroxy-N-(2,3,5,6-tetrafluoro-3′-(trifluoromethoxy)-[1,1′-biphenyl]-4-yl)pyrazolo[1,5-a]pyridine-3-carboxamide] |  | 2.62 ± 0.79 | 8.1 (≈ 3.93 µg/mL) | highly active | 39.6 | 32.6 | 35.3 | 3.27 ± 0.19 | >100 | 31.5 | 28 | 8.6 | did not identify appreciable concentration of metabolites | parent compound recovered ([11]; rat-liver microsomes with regenerating system, 2 h incubation): 100%; metabolic stability [11]: metabolically stable; also recorded: good metabolic stability
O=C(Nc1c(F)c(F)c(-c2ccccc2)c(F)c1F)c1c(O)nn2ccccc12 [Compound 1] |  |  |  |  |  |  |  |  |  |  |  |  | monohydroxylated, dihydroxylated, and methoxylated metabolites | 
CCCOc1cccc(-c2c(F)c(F)c(NC(=O)c3c(O)nn4ccccc34)c(F)c2F)c1 [Compound 17, 2-Hydroxy-N-(2,3,5,6-tetrafluoro-3′-propoxy-[1,1′-biphenyl]-4-yl)pyrazolo[1,5-a]pyridine-3-carboxamide] |  |  |  | highly active |  |  |  | 3.28 ± 0.12 | >100 |  |  |  | monohydroxylated and dealkylated metabolites | time after which parent compound was no longer present ([11]; rat-liver microsomes with regenerating system): ≤ 30 min; metabolic stability [11]: fast metabolism; also recorded: weaker in vitro stability; superiority to brequinar, apoptosis THP1 ([5]; EC50 ratio vs brequinar): 13 times; efficacy in comparison with brequinar, apoptosis U937 ([6]; EC50 ratio vs brequinar): 19 times; efficacy in comparison with brequinar, differentiation U937 ([10]; EC50 ratio vs brequinar): 41 times
